Assay results taken from patent US20130288897A1, “SYNERGISTIC PESTICIDAL COMPOSITIONS” (Dow AgroSciences LLC, priority 2012, published 2013).
Values joined by “and” are separate entries in the source; they are usually repeats but may differ in a detail not shown here. Equal entries are not always repeated.

Assays:
Format in all cases: in vivo
[1] = tested on: cotton aphid (CA) Aphis gossypii; assay: Cotton aphid track-sprayer test on cotton: Compound A or imidacloprid with Durango (glyphosate) or Durango Blank and AMS (Example XVI); details: for % Control (Negatives to zero) Ave / % control Ave / Colbv predicted values Ave: average of 5 reps
Method: Glyphosate resistant cotton plants (Gossypium hirsutum, cv ‘DP493’) were trimmed to 1 true leaf and infested with mixed stages of cotton aphid (CA) Aphis gossypii 24 h prior to application. Mixed developmental stage CA were infested onto the upper surface of each treated leaf by transferring infested foliage from an insectary colony. Each plant was infested with approximately equal numbers of CA based on visual estimation of aphid density on the infested material. Infested plants were held in the growth chamber (L:D 16:8 and 25° C.). Glyphosate (Durango®, Dow AgroSciences, LLC, Indianapolis, Ind.) was mixed with water at a rate equivalent to 15 ml/L (1.2 qt/Ac). […] A glyphosate free formulation of Durango® was prepared using these same mixing instructions. […] High rate Compound A concentrations were created by diluting Compound A technical material with acetone to achieve a 10 ppm solution. […] […] […] Nozzle height above the canopy was held constant at ca. 30 cm. Plants were evaluated after 3 days from the time of infestation by counting all live cotton aphids on each plant.
[…] Percent control for all treatments was calculated using the rep average for the untreated plants.

[2] = tested on: cotton aphid (CA) Aphis gossypii; assay: Cotton aphid track-sprayer test on cotton: Compound A or imidacloprid with glufosinate (Liberty) and AMS (Example XVII); details: for Colby Predicted Values Ave: combination with glufosinate
Method: (§1) Glyphosate resistant cotton plants (Gossypium hirsutum, cv ‘DP493’) were trimmed to 1 true leaf and infested with mixed stages of cotton aphid (CA) Aphis gossypii 24 h prior to application. Mixed developmental stage CA were infested onto the upper surface of each treated leaf by transferring infested foliage from an insectary colony. Each plant was infested with approximately equal numbers of CA based on visual estimation of aphid density on the infested material. Infested plants were held in the growth chamber (L:D 16:8 and 25° C.). Glufosinate (Liberty®, Bayer CropScience, Monheim am Rhein, Germany) was mixed with water at a rate equivalent to 5 ml/L (0.4 qt/Ac). […] High rate Compound A concentrations were created by diluting Compound A technical material with acetone to achieve a 10 ppm solution. […] […] […] Nozzle height above the canopy was held constant at ca. 30 cm. Plants were evaluated after 3 days from the time of infestation by counting all live cotton aphids on each plant.
TABLE 6 contains the calculated Colby values for combinations of treatments as well as the outcome of statistical evaluations between predicted (Colby) and actual measured values. These T-test statistics were only calculated for the 0.2 and 0.05 g/Ha rates. […] These same trends were apparent when Compound A was applied with both glufosinate and AMS.

[3] = tested on: cotton aphid (CA) Aphis gossypii; assay: Cotton aphid track-sprayer test on cotton: Compound A with glufosinate (Liberty) and AMS, rates 0.4, 0.1 and 0.025 g/Ha (Example XVIII); details: for % control Negatives to zero / CA Counts / Colby Predicted Values: Rep 1-6
Method: as §1, with “24 hours” for “24 h”, “a 20” for “a 10”

[4] = 0.0125 g insecticide/Ha with Durango 0.015 ml/ml + AMS 18 g/L
[5] = 0.0125 g insecticide/Ha with Durango 0.015 ml/ml
[6] = 0.0125 g insecticide/Ha with Durango Blank 0.015 ml/ml + AMS 18 g/L
[7] = 0.0125 g insecticide/Ha with Durango Blank 0.015 ml/ml
[8] = 0.05 g insecticide/Ha with Durango 0.015 ml/ml + AMS 18 g/L
[9] = 0.05 g insecticide/Ha with Durango 0.015 ml/ml
[10] = 0.05 g insecticide/Ha with Durango Blank 0.015 ml/ml + AMS 18 g/L
[11] = 0.05 g insecticide/Ha with Durango Blank 0.015 ml/ml
[12] = 0.2 g insecticide/Ha with Durango 0.015 ml/ml + AMS 18 g/L
[13] = 0.2 g insecticide/Ha with Durango 0.015 ml/ml
[14] = 0.2 g insecticide/Ha with Durango Blank 0.015 ml/ml + AMS 18 g/L
[15] = 0.2 g insecticide/Ha with Durango Blank 0.015 ml/ml
[16] = 0.05 g In./HA + Lib. 0.005 ml/ml
[17] = 0.05 g In./HA + Lib. 0.005 ml/ml + AMS 18 g/L
[18] = 0.2 g In./HA + Lib. 0.005 ml/ml
[19] = 0.2 g In./HA + Lib. 0.005 ml/ml + AMS 18 g/L
[20] = 0.8 g In./HA + Lib. 0.005 ml/ml
[21] = 0.8 g In./HA + Lib. 0.005 ml/ml + AMS 18 g/L

O=[N+]([O-])NC1=NCCN1Cc1ccc(Cl)nc1 [Imidacloprid, imidacloprid, reference compound]
% Control (Negatives to zero) Ave [1, 4]: 26.3%
% control Ave [1, 4]: 26.3%
Colbv predicted values Ave [1, 4]: 42.0
% Control (Negatives to zero) Ave [1, 5]: 17.2%
% control Ave [1, 5]: −0.3%
Colbv predicted values Ave [1, 5]: 35.1
% Control (Negatives to zero) Ave [1, 6]: 24.7%
% control Ave [1, 6]: −1.1%
Colbv predicted values Ave [1, 6]: 51.7
% Control (Negatives to zero) Ave [1, 7]: 15.1%
% control Ave [1, 7]: −17.6%
Colbv predicted values Ave [1, 7]: 33.8
% control Ave ([1]; 0.0125 g insecticide/Ha, no herbicide, no AMS): 15.1%
CA Counts ([1]; 0.05 g insecticide/Ha with Durango 0.015 ml/ml + AMS 18 g/L, Rep 1-5, listed as lmidacloprid): 49 and 50 and 71 and 64 and 54
% Control (Negatives to zero) Ave [1, 8]: 37.3%
% control Ave [1, 8]: 37.3%
Colbv predicted values Ave [1, 8]: 46.5
% Control (Negatives to zero) Ave [1, 9]: 25.4%
% control Ave [1, 9]: 21.8%
Colbv predicted values Ave [1, 9]: 38.2
CA Counts ([1]; 0.05 g insecticide/Ha with Durango Blank 0.015 ml/ml + AMS 18 g/L, Rep 1-5, listed as lmidacloprid): 82 and 81 and 108 and 73 and 95
% Control (Negatives to zero) Ave [1, 10]: 11.2%
% control Ave [1, 10]: 5.6%
Colbv predicted values Ave [1, 10]: 58.0
% Control (Negatives to zero) Ave [1, 11]: 24.8%
% control Ave [1, 11]: 20.1%
Colbv predicted values Ave [1, 11]: 41.2
% control Ave ([1]; 0.05 g insecticide/Ha, no herbicide, no AMS): 29.9%
Colbv predicted values ([1]; 0.2 g insecticide/Ha with Durango 0.015 ml/ml + AMS 18 g/L, Rep 1-5, listed as lmidacloprid): 88.5 and 68.2 and 93.5 and 56.2 and 48.8
% Control (Negatives to zero) Ave [1, 12]: 30.8%
% control Ave [1, 12]: 23.9%
Colbv predicted values Ave [1, 12]: 71.0
Colbv predicted values ([1]; 0.2 g insecticide/Ha with Durango 0.015 ml/ml, Rep 1-5, expected additive control, listed as lmidacloprid): 74.5 and 68.6 and 84.8 and 56.2 and 48.8
% Control (Negatives to zero) Ave [1, 13]: 45.5%
% control Ave [1, 13]: 45.5%
Colbv predicted values Ave [1, 13]: 66.6
Colbv predicted values ([1]; 0.2 g insecticide/Ha with Durango Blank 0.015 ml/ml + AMS 18 g/L, Rep 1-5, listed as lmidacloprid): 96.1 and 88.7 and 75.9 and 68.4 and 48.8
% Control (Negatives to zero) Ave [1, 14]: 32.2%
% control Ave [1, 14]: 27.3%
Colbv predicted values Ave [1, 14]: 75.2
Colbv predicted values ([1]; 0.2 g insecticide/Ha with Durango Blank 0.015 ml/ml, Rep 1-5, listed as lmidacloprid): 84.2 and 67.7 and 71.9 and 56.2 and 48.8
% Control (Negatives to zero) Ave [1, 15]: 55.3%
% control Ave [1, 15]: 55.3%
Colbv predicted values Ave [1, 15]: 65.7
synergy assessment (measured vs predicted additive Colby values) ([1]; 0.2 g insecticide/Ha, co-applied with AMS and Durango): antagonism of imidacloprid activity
CA Counts ([1]; 0.2 g insecticide/Ha, no herbicide, no AMS, Rep 1-5, live aphids per plant after 3 days, listed as lmidacloprid): 30 and 51 and 44 and 32 and 38
% control ([1]; 0.2 g insecticide/Ha, no herbicide, no AMS, Rep 1-5, vs rep average of untreated plants, listed as lmidacloprid): 74.5% and 50.4% and 61.1% and 56.2% and 48.8%
% control Ave ([1]; 0.2 g insecticide/Ha, no herbicide, no AMS): 58.2%
synergy assessment (measured vs predicted additive Colby values) ([1]; 0.2 g insecticide/Ha, only Durango mixed): no effects
synergy assessment (measured vs predicted additive Colby values) ([1]; 0.2 g insecticide/Ha, with Durango blank and AMS): antagonistic effect
synergy assessment (measured vs predicted additive Colby values) ([1]; 0.2 g insecticide/Ha, with Durango blank formulation): no significant difference between predicted and measured activity
% control AVE ([2]; 0.0125 g In./Ha + glufosinate 0.005 ml/ml): 66.5%
Colby Predicted Values Ave ([2]; 0.0125 g In./Ha): 53.6
% control AVE ([2]; 0.05 g In./Ha + glufosinate 0.005 ml/ml): 51.2%
Colby Predicted Values Ave ([2]; 0.05 g In./Ha): 53.8
% control AVE ([2]; 0.2 g In./Ha + glufosinate 0.005 ml/ml): 58.2%
Colby Predicted Values Ave ([2]; 0.2 g In./Ha): 59.6
synergy assessment (measured vs predicted Colby values) ([2]; insecticide applied together with glufosinate): not different from the calculated additive values
synergy assessment (measured vs predicted Colby values) ([2]; insecticide with glufosinate and AMS): No evidence of synergy
% Control (Negatives to zero) Ave [3, 16]: 24.3%
Colby Predicted Values Ave [3, 16]: 45.1
% Control (Negatives to zero) Ave [3, 17]: 76.9%
Colby Predicted Values Ave [3, 17]: 51.7
% Control (Negatives to zero) Ave ([3]; 0.05 g In./HA, no Lib., no AMS): 19.0%
% Control (Negatives to zero) Ave [3, 18]: 27.0%
Colby Predicted Values Ave [3, 18]: 54.6
% Control (Negatives to zero) Ave [3, 19]: 54.3%
Colby Predicted Values Ave [3, 19]: 60.7
% Control (Negatives to zero) Ave ([3]; 0.2 g In./HA, no Lib., no AMS): 38.7%
% Control (Negatives to zero) Ave [3, 20]: 72.3%
Colby Predicted Values Ave [3, 20]: 86.1
% Control (Negatives to zero) Ave [3, 21]: 96.5%
Colby Predicted Values Ave [3, 21]: 88.0
% Control (Negatives to zero) Ave ([3]; 0.8 g In./HA, no Lib., no AMS): 80.0%
% control Negatives to zero [3, 17]: 84.6% and 71.0% and 86.9% and 48.9% and 79.9% and 89.9%
CA Counts ([3]; 0.2 g In./Ha + Liberty 0.005 ml/ml): 187 and 234 and 169 and 198 and 265 and 240
CA Counts ([3]; 0.2 g In./Ha, no Liberty, no AMS): 154 and 165 and 228 and 241 and 176 and 123
% control Negatives to zero [3, 20]: 87.5% and 73.3% and 71.0% and 78.3% and 69.2% and 54.7%
Colby Predicted Values [3, 20]: 81.9 and 81.5 and 94.8 and 78.1 and 94.0 and 86.3
% control Negatives to zero [3, 21]: 96.7% and 94.4% and 96.0% and 94.2% and 98.3% and 99.7%
Colby Predicted Values [3, 21]: 86.8 and 83.6 and 95.2 and 78.2 and 94.5 and 89.7
% control Negatives to zero ([3]; 0.8 g In./HA, no Lib., no AMS): 75.5% and 81.5% and 91.6% and 73.2% and 74.2% and 84.3%
